Results as given in patent publication US10344017B2, “Pyrrolcarboxamide derivatives for the inhibition of ERK5” (CANCER RESEARCH TECHNOLOGY LIMITED, priority 2014, dated 2019).

Biological target: T1, ERK5 (Homo sapiens, UniProt Q13164)
T1 construct: made in house
Experiment: ERK5 IMAP assay (fluorescence polarisation)
Type: biochemical
Conditions: average (e.g. geometric mean) where more than one data point; read-out: ERK5 IC50

T1 sequence (Q13164 whole entry): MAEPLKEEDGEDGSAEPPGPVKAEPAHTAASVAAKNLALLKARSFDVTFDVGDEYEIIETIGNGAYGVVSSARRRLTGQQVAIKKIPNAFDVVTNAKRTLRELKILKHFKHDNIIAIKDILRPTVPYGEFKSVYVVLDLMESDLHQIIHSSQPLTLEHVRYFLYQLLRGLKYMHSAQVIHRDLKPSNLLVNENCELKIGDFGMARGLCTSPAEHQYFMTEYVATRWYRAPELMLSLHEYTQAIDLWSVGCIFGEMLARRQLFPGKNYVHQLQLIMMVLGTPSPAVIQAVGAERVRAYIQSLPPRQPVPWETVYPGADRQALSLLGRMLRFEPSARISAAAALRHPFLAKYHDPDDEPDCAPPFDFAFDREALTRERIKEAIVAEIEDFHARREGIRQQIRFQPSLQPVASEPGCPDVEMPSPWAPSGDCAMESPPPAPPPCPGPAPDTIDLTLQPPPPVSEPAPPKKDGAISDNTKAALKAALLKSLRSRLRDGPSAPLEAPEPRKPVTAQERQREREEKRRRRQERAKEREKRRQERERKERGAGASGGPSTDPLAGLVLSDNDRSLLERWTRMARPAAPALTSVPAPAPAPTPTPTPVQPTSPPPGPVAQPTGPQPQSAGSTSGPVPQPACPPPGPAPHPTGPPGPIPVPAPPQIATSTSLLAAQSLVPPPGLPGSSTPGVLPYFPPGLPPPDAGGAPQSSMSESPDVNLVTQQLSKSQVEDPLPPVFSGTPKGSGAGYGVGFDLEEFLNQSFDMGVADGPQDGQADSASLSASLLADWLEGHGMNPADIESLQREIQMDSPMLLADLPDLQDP

SMILES | IC50 [nM]
Cn1cc(NC(=O)c2cc(C(=O)c3c(Cl)ccc(OC4CCOC4)c3F)c[nH]2)cn1 (stereo not drawn) [Example 261, 4-(6-Chloro-2-fluoro-3-((tetrahydrofuran-3-yl)oxy)benzoyl)-N-(1-methyl-1H-pyrazol-4-yl)-1H-pyrrole-2-carboxamide] | 553
COc1ccc(F)c(C(=O)c2c[nH]c(C(=O)NC3CCN(C)CC3)c2)c1Cl [Example 71, 4-(2-chloro-6-fluoro-3-methoxybenzoyl)-N-(1-methylpiperidin-4-yl)-1H-pyrrole-2-carboxamide] | 173
O=C(Nc1cccnc1N1CCCC1)c1cc(C(=O)c2c(Cl)ccc(Cl)c2F)c[nH]1 [Example 86, 4-(3,6-Dichloro-2-fluorobenzoyl)-N-(2-(pyrrolidin-1-yl)pyridin-3-yl)-1H-pyrrole-2-carboxamide] | 12200
COCCN(CCOC)Cc1ccc(NC(=O)c2cc(C(=O)c3c(Cl)ccc(Cl)c3F)c[nH]2)cn1 [Example 283, N-(6-((bis(2-methoxyethyl)amino)methyl)pyridin-3-yl)-4-(3,6-dichloro-2-fluorobenzoyl)-1H-pyrrole-2-carboxamide] | 117
CCN(CC)CCn1cc(NC(=O)c2cc(C(=O)c3c(Cl)ccc(Cl)c3F)c[nH]2)cn1 [Example 43, 4-(3,6-Dichloro-2-fluorobenzoyl)-N-(1-(2-(diethylamino)ethyl)-1H-pyrazol-4-yl)-1H-pyrrole-2-carboxamide] | 207
CN1CCC(NC(=O)c2cc(C(=O)c3c(F)cccc3C3CC3)c[nH]2)CC1 [Example 204, 4-(2-Cyclopropyl-6-fluorobenzoyl)-N-(1-methylpiperidin-4-yl)-1H-pyrrole-2-carboxamide] | 8230
Cc1cccc(F)c1C(=O)c1c[nH]c(C(=O)Nc2ccncc2)c1 [Example 185, 4-(2-Fluoro-6-methylbenzoyl)-N-(pyridin-4-yl)-1H-pyrrole-2-carboxamide] | 1900
CCc1ncccc1NC(=O)c1cc(C(=O)c2c(Cl)ccc(Cl)c2F)c[nH]1 [Example 82, 4-(3,6-Dichloro-2-fluorobenzoyl)-N-(2-ethylpyridin-3-yl)-1H-pyrrole-2-carboxamide] | 1050
CN1CCC(NC(=O)c2cc(C(=O)c3c(F)ccc(F)c3F)c[nH]2)CC1 [Example 209, N-(1-Methylpipendin-4-yl)-4-(2,3,6-trifluorobenzoyl)-1H-pyrrole-2-carboxamide] | 569
COc1ccc(Cl)c(C(=O)c2c[nH]c(C(=O)Nc3ccc(CN4CCOCC4)nc3)c2)c1F [Example 116, 4-(6-Chloro-2-fluoro-3-methoxybenzoyl)-N-(6-(morpholinomethyl)pyridin-3-yl)-1H-pyrrole-2-carboxamide] | 21.8
O=C(NC1CCNCC1)c1cc(C(=O)c2c(F)ccc(F)c2Cl)c[nH]1 [Example 215, 4-(2-Chloro-3,6-difluorobenzoyl)-N-(piperidin-4-yl)-1H-pyrrole-2-carboxamide] | 694
O=C(NC1CCOCC1)c1cc(C(=O)c2c(F)cccc2Cl)c[nH]1 [Example 194, 4-(2-Chloro-6-fluorobenzoyl)-N-(tetrahydro-2H-pyran-4-yl)-1H-pyrrole-2-carboxamide] | 845
COCCn1cc(NC(=O)c2cc(C(=O)c3c(Cl)ccc(Cl)c3F)c[nH]2)cn1 [Example 47, 4-(3,6-Dichloro-2-fluorobenzoyl)-N-(1-(2-methoxyethyl)-1H-pyrazol-4-yl)-1H-pyrrole-2-carboxamide] | 75.2
O=C(Nc1cnn(C2CCOC2)c1)c1cc(C(=O)c2c(Cl)ccc(Cl)c2F)c[nH]1 (stereo not drawn) [Example 240, 4-(3,6-Dichloro-2-fluorobenzoyl)-N-(1-(tetrahydrofuran-3-yl)-1H-pyrazol-4-yl)-1H-pyrrole-2-carboxamide] | 127
CS(=O)(=O)CCn1cc(NC(=O)c2cc(C(=O)c3c(Cl)ccc(Cl)c3F)c[nH]2)cn1 [Example 238, 4-(3,6-Dichloro-2-fluorobenzoyl)-N-(1-(2-(methylsulfonyl)ethyl)-1H-pyrazol-4-yl)-1H-pyrrole-2-carboxamide] | 119
O=C(Nc1cccnc1)c1cc(C(=O)c2c(F)cccc2C2CC2)c[nH]1 [Example 202, 4-(2-Cyclopropyl-6-fluorobenzoyl)-N-(pyridin-3-yl)-1H-pyrrole-2-carboxamide] | 23000
CC(=O)OC1CCN(c2ncc(NC(=O)c3cc(C(=O)c4c(F)cccc4Cl)c[nH]3)cn2)CC1 [Example 21, 1-(5-(4-(2-Chloro-6-fluorobenzoyl)-1H-pyrrole-2-carboxamido)pyrimidin-2-yl)piperidin-4-yl acetate] | 5380
O=C(NC1CCNCC1)c1cc(C(=O)c2cc(F)ccc2F)c[nH]1 [Example 226, 4-(2,5-Difluorobenzoyl)-N-(piperidin-4-yl)-1H-pyrrole-2-carboxamide] | 8560
Cc1cc(NC(=O)c2cc(C(=O)c3c(F)cccc3Cl)c[nH]2)ccn1 [Example 136, 4-(2-Chloro-6-fluorobenzoyl)-N-(2-methylpyridin-4-yl)-1H-pyrrole-2-carboxamide] | 401
C=Cc1ccc(F)c(C(=O)c2c[nH]c(C(=O)Nc3cncnc3)c2)c1F [Example 166, 4-(2,6-Difluoro-3-vinylbenzoyl)-N-(pyrimidin-5-yl)-1H-pyrrole-2-carboxamide] | 1370

SMILES | IC50 [nM]
O=C(Nc1cnc(CN2CCOCC2)nc1)c1cc(C(=O)c2c(Cl)ccc(Cl)c2F)c[nH]1 [Example 242, 4-(3,6-Dichloro-2-fluorobenzoyl)-N-(2-(morpholinomethyl)pyrimidin-5-yl)-1H-pyrrole-2-carboxamide] | 53
COCCn1cc(NC(=O)c2cc(C(=O)c3c(Cl)ccc(OC)c3F)c[nH]2)cn1 [Example 63, 4-(6-Chloro-2-fluoro-3-methoxybenzoyl)-N-(1-(2-methoxyethyl)-1H-pyrazol-4-yl)-1H-pyrrole-2-carboxamide] | 104
O=C(Nc1cccnc1)c1cc(C(=O)c2c(Cl)ccc(OC3COC3)c2F)c[nH]1 [Example 272, 4-(6-Chloro-2-fluoro-3-(oxetan-3-yloxy)beruoyl)-N-(pyridin-3-yl)-1H-pyrrole-2-carboxamide] | 73
Cc1ccc(F)c(C(=O)c2c[nH]c(C(=O)NC3CCN(C)CC3)c2)c1F [Example 220, 4-(2,6-Difluoro-3-methylbenzoyl)-N-(1-methylpiperidin-4-yl)-1H-pyrrole-2-carboxamide] | 399
CC(=O)N1CCC(NC(=O)c2cc(C(=O)c3c(F)cccc3Cl)c[nH]2)CC1 [Example 6, N-(1-Acetylpiperidin-4-yl)-4-(2-chloro-6-fluorobenzoyl)-1H-pyrrole-2-carboxamide] | 459
O=C(Nc1ccnnc1)c1cc(C(=O)c2c(F)cccc2Br)c[nH]1 [Example 139, 4-(2-Bromo-6-fluorobenzoyl)-N-(pyridazin-4-yl)-1H-pyrrole-2-carboxamide] | 818
O=C(Nc1cccnc1)c1cc(C(=O)c2c(Cl)ccc(OC3CCOCC3)c2F)c[nH]1 [Example 267, 4-(6-Chloro-2-fluoro-3-((tetrahydro-2H-pyran-4-yl)oxy)benzoyl)-N-(pyridin-3-yl)-1H-pyrrole-2-carboxamide] | 1740
O=C(Nc1cccnc1)c1cc(C(=O)c2c(F)ccc(F)c2Cl)c[nH]1 [Example 214, 4-(2-Chloro-3,6-difluorobenzoyl)-N-(pyridin-3-yl)-1H-pyrrole-2-carboxamide] | 1010
COc1ccncc1NC(=O)c1cc(C(=O)c2c(Cl)ccc(Cl)c2F)c[nH]1 [Example 96, 4-(3,6-Dichloro-2-fluorobenzoyl)-N-(4-methoxypyridin-3-yl)-1H-pyrrole-2-carboxamide] | 1000
Cc1cc(NC(=O)c2cc(C(=O)c3c(F)cccc3Cl)c[nH]2)nc(C)n1 [Example 142, 4-(2-Chloro-6-fluorobenzoyl)-N-(2,6-dimethylpyrimidin-4-yl)-1H-pyrrole-2-carboxamide] | 4130
CN1CCC(Nc2ccc(NC(=O)c3cc(C(=O)c4c(Cl)ccc(Cl)c4F)c[nH]3)cn2)CC1 [Example 32, 4-(3,6-Dichloro-2-fluorobenzoyl)-N-(6-((1-methylpiperidin-4-yl)amino)pyridin-3-yl)-1H-pyrrole-2-carboxamide] | 23.8
O=C(Nc1ccncc1)c1cc(C(=O)c2cccc(Cl)c2Cl)c[nH]1 [Example 158, 4-(2,3-Dichlorobenzoyl)-N-(pyridin-4-yl)-1H-pyrrole-2-carboxamide] | 5470
COc1ccc(Cl)c(C(=O)c2c[nH]c(C(=O)Nc3cnc(CN4CCOCC4)nc3)c2)c1F [Example 243, 4-(6-Chloro-2-fluoro-3-methoxybenzoyl)-N-(2-(morpholinomethyl)pyrimidin-5-yl)-1H-pyrrole-2-carboxomide] | 129
O=C(Nc1cnc(N2CCNCC2)nc1)c1cc(C(=O)c2c(F)cccc2Cl)c[nH]1 [Example 26, 4-(2-Chloro-6-fluorobenzoyl)-N-(2-(piperazin-1-yl)pyrimidin-5-yl)-1H-pyrrole-2-carboxamide] | 88.8
O=C(Nc1cnc(N2CCC(O)CC2)nc1)c1cc(C(=O)c2c(Cl)ccc(Cl)c2F)c[nH]1 [Example 29, 4-(3,6-Dichloro-2-fluorobenzoyl)-N-(2-(4-hydroxypiperidin-1-yl)pyrimidin-5-yl)-1H-pyrrole-2-carboxamide] | 537
CNCc1ccc(F)c(C(=O)c2c[nH]c(C(=O)Nc3cccnc3)c2)c1F [Example 274, 4-(2,6-difluoro-3-((methylamino)methyl)benzoyl)-N-(pyridin-3-yl)-1H-pyrrole-2-carboxamide] | 3640
CC(C)N1CCC(NC(=O)c2cc(C(=O)c3c(F)cccc3Cl)c[nH]2)CC1 [Example 1, 4-(2-Chloro-6-fluorobenzoyl)-N-(1-isopropylpiperidin-4-yl)-1H-pyrrole-2-carboxamide] | 657
CN1CCC(NC(=O)c2cc(C(=O)c3c(F)ccc(Cl)c3Cl)c[nH]2)CC1 [Example 171, 4-(2,3-Dichloro-6-fluorobenzoyl)-N-(1-methylpiperidin-4-yl)-1H-pyrrole-2-carboxamide] | 283
CCc1cccc(F)c1C(=O)c1c[nH]c(C(=O)Nc2cccnc2)c1 [Example 199, 4-(2-Ethyl-6-fluorobenzoyl)-N-(pyridin-3-yl)-1H-pyrrole-2-carboxamide] | 12700
